The text below walks through data of ChEMBL document CHEMBL1275517, “Development of caspofungin resistance following prolonged therapy for invasive candidiasis secondary to Candida glabrata infection” (2008).

Common to all, as to format: functional
Assay [1] has as its system Nakaseomyces glabratus. The assay can be described thus: Antimicrobial activity against Candida glabrata isolate 7754 after 24 hrs by broth dilution method in presence of 50% of human serum. Particulars: isolate 7754, 24 h. In general terms: Dilution methods test growth across graded concentrations, often in twofold steps.
Assay [2] concerns Nakaseomyces glabratus. The assay can be described thus: Antimicrobial activity against Candida glabrata isolate 7755 expressing FKS2 F659V mutant gene after 24 hrs by broth dilution method. The note with it: isolate 7755, 24 h.
Assay [3] concerns Nakaseomyces glabratus. Description: Antimicrobial activity against Candida glabrata isolate 7755 expressing FKS2 F659V mutant gene after 24 hrs by broth dilution method in presence of 50% of human serum. The note with it: isolate 7755, 24 h.
Assay [4] relates to Nakaseomyces glabratus. Description: Antimicrobial activity against Candida glabrata isolate 7754 after 24 hrs by broth dilution method. The note with it: isolate 7754, 24 h.
For assay [5], the system named is Nakaseomyces glabratus. The assay can be described thus: Antimicrobial activity against Candida glabrata isolate 7754 after 48 hrs by broth dilution method in presence of 50% of human serum. Particulars: isolate 7754, 48 h.
Assay [6] concerns Nakaseomyces glabratus. Description: Antimicrobial activity against Candida glabrata isolate 7755 FKS2 F659V mutant gene after 48 hrs by broth dilution method in presence of 50% of human serum. The note with it: isolate 7755, 48 h.
Assay [7] has as its system Nakaseomyces glabratus. Description: Antimicrobial activity against Candida glabrata isolate 7754 after 48 hrs by broth dilution method. The note with it: isolate 7754, 48 h.
In assay [8] the test system is Nakaseomyces glabratus. The assay can be described thus: Antimicrobial activity against Candida glabrata isolate 7755 FKS2 F659V mutant gene after 48 hrs by broth dilution method. The note with it: isolate 7755, 48 h.

What is called MIC is the smallest concentration in the dilution series that meets the test's criterion for growth inhibition.

≈ marks a conversion by molar mass, not a printed value. Numbered stars: 1 amine (or outer) side, 2 acyl side, 3 side chain; on linkers, the order of the positions; unused ones are H or OH. Bridge positions count the residues as written; N and C are the ends. Square brackets hold non-standard residues; d marks the D form. Peptide text beside a SMILES is read from it. * marks the point of attachment. hTyr(3S-OH,4S-OH,3'-OSO3H) = N[C@H](C(=O)O)[C@H](O)[C@@H](O)c1ccc(O)c(OS(=O)(=O)O)c1; pTerphenylCO(4''-OnC5H11) = CCCCCOc1ccc(-c2ccc(-c3ccc(C(=O)*)cc3)cc2)cc1; Orn(4R-OH,5R-OH) = O=C([C@H](C[C@@H](O)[C@@H](O)N[*:3])N[*:1])[*:2]; hTyr(3S-OH,4S-OH) = N[C@H](C(=O)O)[C@H](O)[C@@H](O)c1ccc(O)cc1; Pro(3S-OH,4S-Me) = C[C@H]1CN[C@H](C(=O)O)[C@H]1O; X1 = CCCCCOc1ccc(-c2cc(-c3ccc(C(=O)*)cc3)no2)cc1; Gln(3R-OH) = NC(=O)C[C@@H](O)[C@H](N)C(=O)O; Hyp = O=C(O)[C@@H]1C[C@@H](O)CN1

`CCCCCOc1ccc(-c2ccc(-c3ccc(C(=O)N[C@H]4C[C@@H](O)[C@@H](O)NC(=O)[C@@H]5[C@@H](O)[C@@H](C)CN5C(=O)[C@H]([C@@H](C)O)NC(=O)[C@H]([C@H](O)[C@@H](O)c5ccc(O)cc5)NC(=O)[C@@H]5C[C@@H](O)CN5C(=O)[C@H]([C@@H](C)O)NC4=O)cc3)cc2)cc1` [ANIDULAFUNGIN] ({pTerphenylCO(4''-OnC5H11)}-[Orn(4R-OH,5R-OH)]T[Hyp][hTyr(3S-OH,4S-OH)]T[Pro(3S-OH,4S-Me)]; lactam 1-C): the MIC in assay [1] is 1 µg/mL; in assay [2], 0.5 µg/mL (≈ 0.438 µM); in assay [3] it was 4 µg/mL; in assay [4] it was 0.125 µg/mL (≈ 0.11 µM); in assay [5], 2 µg/mL; in assay [6] it was 4 µg/mL. For the same compound, the values for the MIC in assay [7] and in assay [8] were 0.125 µg/mL (≈ 0.11 µM) and 1 µg/mL (≈ 0.877 µM), respectively.
`CC[C@H](C)C[C@H](C)CCCCCCCCC(=O)N[C@H]1C[C@@H](O)[C@@H](NCCN)NC(=O)[C@@H]2[C@@H](O)CCN2C(=O)[C@H]([C@H](O)CCN)NC(=O)[C@H]([C@H](O)[C@@H](O)c2ccc(O)cc2)NC(=O)[C@@H]2C[C@@H](O)CN2C(=O)[C@H]([C@@H](C)O)NC1=O` [CASPOFUNGIN]: the MIC in assay [1] worked out at 0.5 µg/mL; in assay [2] it was 2 µg/mL (≈ 1.83 µM); in assay [3], 2 µg/mL; in assay [4], 0.25 µg/mL (≈ 0.229 µM); in assay [5], 0.5 µg/mL; in assay [6] it was 8 µg/mL. In addition, the MIC in assay [7] was found to be 0.25 µg/mL (≈ 0.229 µM); in assay [8], 8 µg/mL (≈ 7.32 µM).
For `CCCCCOc1ccc(-c2cc(-c3ccc(C(=O)N[C@H]4C[C@@H](O)[C@@H](O)NC(=O)[C@@H]5[C@@H](O)[C@@H](C)CN5C(=O)[C@H]([C@H](O)CC(N)=O)NC(=O)[C@H]([C@H](O)[C@@H](O)c5ccc(O)c(OS(=O)(=O)O)c5)NC(=O)[C@@H]5C[C@@H](O)CN5C(=O)[C@H]([C@@H](C)O)NC4=O)cc3)no2)cc1` [MICAFUNGIN] (X1-[Orn(4R-OH,5R-OH)]T[Hyp][hTyr(3S-OH,4S-OH,3'-OSO3H)][Gln(3R-OH)][Pro(3S-OH,4S-Me)]; lactam 1-C), the MIC in assay [1] was determined as 1 µg/mL; in assay [2] it was 0.25 µg/mL (≈ 0.197 µM); in assay [3], 4 µg/mL; in assay [4], 0.125 µg/mL (≈ 0.0984 µM); in assay [5] it was 4 µg/mL; in assay [6] it was 4 µg/mL. Further, the results for the minimum inhibitory concentration (MIC) in assay [7] and in assay [8] were 0.125 µg/mL (≈ 0.0984 µM) and 0.5 µg/mL (≈ 0.394 µM), respectively.
